Assay results from ChEMBL document CHEMBL1201862, “PubChem BioAssay data set” (2004).
Calls of active or inactive are those of the source.

Legend:
Cytochrome P450 2C19 = Cytochrome P450 2C19 (Homo sapiens, UniProt P33261); assay: Cytochrome panel assay with activity outcomes. Panel member name: p450-cyp2c19 Compounds with AC50 equal or less than 10 uM are considered active; format: functional
Cytochrome P450 2D6 = Cytochrome P450 2D6 (Homo sapiens, UniProt P10635);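 also: CYP2D6 member of a cytochrome P450 panel assay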
Cytochrome P450 2C9 = Cytochrome P450 2C9 (Homo sapiens, UniProt P11712)
[1] = inhibitors of SNCA 5'UTR-driven reporter translation, confirmation, H4 neuroglioma cells, luminescence (AID 1988); format: functional, cell-based
[2] = inhibitors of firefly luciferase expression or activity, dose response, H4 neuroglioma cells, luminescence (AID 1990); format: functional, cell-based
[3] = Luminescence Cell-Based Dose Response HTS to Identify Inhibitors of 5'UTR Stem-Loop Driven Prion Protein mRNA Translation in H4 Neuroglioblastoma Cells. [Related pubchem assays: 1827 (Project Summary), 1813 (Primary HTS)]; format: functional
[4] = cytotoxicity toward NIH3T3 fibroblasts, dose response, counter-screen, cell-based, ATP luminescence, mouse fibroblasts (AID 2010); format: functional;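 also: cells exposed to compound for about 90 hours before reading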
[5] = inhibitors of intracellular T. cruzi replication, confirmation, NIH3T3 host cells, beta-gal luminescence (AID 2044); format: functional, cell-based;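 also: intracellular parasites grown in NIH/3T3 mouse fibroblasts as host cells; luminescent beta-galactosidase reporter signal from transgenic T. cruzi replicating inside host cells; inhibitors lower the luminescence signal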
INS1 = assay: beta cell apoptosis inhibitors, cytokine rescue, dose response, luminescence, retest (AID 449756); format: functional, cell-based; settings: Rattus norvegicus;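 also: cell death triggered by IL-1 beta plus TNF-alpha plus IFN-gamma mixture; protective hits raise ATP signal compared with cytokine alone wells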
[6] = test system: Streptococcus sp. 'group A'; assay: growth inhibition of control SK(-) GAS strain, dose response, counter-screen for streptokinase expression inhibitor project, luminescence, kanamycin, BacTiterGlo, confirmation (AID 1900); format: functional, organism-based
Streptococcus = assay: Group A Streptococcus viability loss, dose response, counter-screen for streptokinase expression inhibitor project, luminescence, BacTiterGlo (AID 1915); format: functional, organism-based;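 also: potency for reduction of bacterial viability or growth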

Cytochrome P450 2C9, sequence (P11712 whole entry): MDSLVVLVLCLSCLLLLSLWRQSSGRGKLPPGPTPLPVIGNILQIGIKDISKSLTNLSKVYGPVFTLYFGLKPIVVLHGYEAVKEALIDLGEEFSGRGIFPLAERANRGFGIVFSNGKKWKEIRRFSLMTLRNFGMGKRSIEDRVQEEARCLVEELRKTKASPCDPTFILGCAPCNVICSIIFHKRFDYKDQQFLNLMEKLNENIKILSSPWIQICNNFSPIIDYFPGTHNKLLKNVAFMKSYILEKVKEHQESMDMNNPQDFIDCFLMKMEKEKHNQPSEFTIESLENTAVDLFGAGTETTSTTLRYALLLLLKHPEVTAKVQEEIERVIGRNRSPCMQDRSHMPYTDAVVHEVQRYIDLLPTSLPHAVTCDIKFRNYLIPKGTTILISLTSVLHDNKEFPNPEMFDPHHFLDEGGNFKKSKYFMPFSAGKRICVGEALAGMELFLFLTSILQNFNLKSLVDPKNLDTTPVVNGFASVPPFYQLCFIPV
Cytochrome P450 2D6, sequence (P10635 whole entry): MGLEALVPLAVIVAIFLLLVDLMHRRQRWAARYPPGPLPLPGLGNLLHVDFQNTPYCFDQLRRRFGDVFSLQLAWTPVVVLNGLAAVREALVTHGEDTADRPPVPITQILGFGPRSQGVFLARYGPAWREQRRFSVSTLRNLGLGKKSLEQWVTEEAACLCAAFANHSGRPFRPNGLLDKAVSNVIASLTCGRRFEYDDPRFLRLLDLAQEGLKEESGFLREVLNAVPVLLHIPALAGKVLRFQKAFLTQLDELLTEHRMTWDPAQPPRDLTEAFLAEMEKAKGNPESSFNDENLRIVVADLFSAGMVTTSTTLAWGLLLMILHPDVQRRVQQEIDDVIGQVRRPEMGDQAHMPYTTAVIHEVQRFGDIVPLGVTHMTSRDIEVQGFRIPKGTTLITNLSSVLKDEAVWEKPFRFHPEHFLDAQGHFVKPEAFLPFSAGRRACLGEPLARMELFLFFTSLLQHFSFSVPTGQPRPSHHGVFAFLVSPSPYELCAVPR
Cytochrome P450 2C19, sequence (P33261 whole entry): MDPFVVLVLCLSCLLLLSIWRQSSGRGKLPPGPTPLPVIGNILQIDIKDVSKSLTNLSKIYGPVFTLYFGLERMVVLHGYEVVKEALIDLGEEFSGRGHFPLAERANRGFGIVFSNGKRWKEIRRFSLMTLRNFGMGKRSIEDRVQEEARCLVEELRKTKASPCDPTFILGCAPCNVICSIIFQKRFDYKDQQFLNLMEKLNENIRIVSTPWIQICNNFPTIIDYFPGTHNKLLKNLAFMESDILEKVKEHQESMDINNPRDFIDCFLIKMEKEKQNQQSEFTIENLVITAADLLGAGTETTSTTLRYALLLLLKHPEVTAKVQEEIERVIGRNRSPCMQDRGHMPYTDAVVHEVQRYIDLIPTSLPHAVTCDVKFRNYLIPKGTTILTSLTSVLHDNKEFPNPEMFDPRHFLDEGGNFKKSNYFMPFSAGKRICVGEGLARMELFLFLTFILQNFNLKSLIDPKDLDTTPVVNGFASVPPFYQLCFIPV

## CCc1c2c(nc3ccc(OC)cc13)COC2
Cytochrome P450 2C19; read-out: AC50
  AC50: 20 µM (inconclusive)
Cytochrome P450 2D6
  AC50: 20 µM (inconclusive)

## CCC/C=C(\CCC)C(NC(=O)Oc1ccc(F)cc1)c1ccc(C(=O)OC)cc1 (stereo unspecified)
Cytochrome P450 2C9
  AC50: 39.8 µM (inconclusive)

## Cc1ccc2cc(CN(Cc3ccco3)C(=O)NC3CCCCC3)c(O)nc2c1C
[1]
  EC50: 13.6 µM (active)
[2]
  EC50: 15.9 µM (active)
[3]
  EC50: 16.4 µM (active)

## CC(C)c1ccc(Cn2ccc3c4c(N)nc(NC5CC5)nc4ccc32)cc1
Cytochrome P450 2C19; read-out: AC50
  AC50: 31.6 µM (inconclusive)

## Cc1ccc(C(=O)Nc2cc3c(oc2=O)CCCC3=O)cc1
Cytochrome P450 2D6
  AC50: 0.01 µM (inconclusive)

## CCN(CC)CC#CCC(O)(c1ccccc1)C1CCCC1 (stereo unspecified)
[4]
  EC50: > 60 µM (not active)
[5]
  EC50: 0.52 µM (active)

## CCN(CC)c1ccc2c(Cl)cc(=O)oc2c1
Cytochrome P450 2C9
  AC50: 31.6 µM (inconclusive)

## COc1ccc(OC)c(-c2nc(CN3CCCCC3c3cccnc3)c(C)o2)c1 (stereo unspecified)
[4]
  EC50: > 60 µM (not active)
[5]
  EC50: 2.02 µM (active)

## CC(=O)NC(C)c1cc(Cl)c2cccnc2c1O (stereo unspecified)
INS1
  AC50: 4.08 µM (active)

## Cc1cccc(N(C)S(=O)(=O)c2ccc3[nH]c(=O)c(=O)[nH]c3c2)c1
Cytochrome P450 2C19; read-out: AC50
  AC50: 20 µM (inconclusive)

## O=C(Nc1ccc([N+](=O)[O-])cn1)c1cc(-c2cccc(Cl)c2)nc2ccccc12
[4]
  EC50: > 30 µM (not active)
[5]
  EC50: 0.809 µM (active)

## COc1ccccc1N1CCN(c2nc(C)nc3c2oc2ccccc23)CC1
[1]
  EC50: 0.193 µM (active)
[2]
  EC50: 10.3 µM (active)
[3]
  EC50: 0.842 µM (active)

## CCN(CC)c1ccc(/N=C/c2cc(Br)ccc2O)cc1
[4]
  EC50: > 60 µM (inconclusive)
[5]
  EC50: 4.39 µM (active)

## COc1cccc(CC2(CO)CCCN(Cc3ccc(CN4CCCCC4)s3)C2)c1 (stereo unspecified)
[4]
  EC50: 9.85 µM (active)
[5]
  EC50: 0.253 µM (active)

## O=c1cc(N2CCCCC2)c(-c2ccccc2)nn1Cc1ccc(F)cc1
[4]
  EC50: 9.08 µM (active)
[5]
  EC50: 2.17 µM (active)

## COCCn1c(=O)c(C)nc2cnc(Oc3ccc(OC)cc3)nc21
Cytochrome P450 2C9
  AC50: 20 µM (inconclusive)
Cytochrome P450 2C19; read-out: AC50
  AC50: 39.8 µM (inconclusive)

## CS(=O)(=O)NCCSCc1c(Cl)cccc1Cl
[4]
  EC50: > 60 µM (inconclusive)
[5]
  EC50: 36.9 µM (active)

## NC(=O)c1[nH]cnc1N
[4]
  EC50: 4.94 µM (active)
[5]
  EC50: > 30 µM (not active)

## Cc1c(C(=O)N(Cc2ccccc2)C(C)C)oc2ccc(S(=O)(=O)N3CCOCC3)cc12
INS1
  AC50: 48 µM (active)

## CCN(CC)C(=O)C1CC(=O)N(c2ccc(OC)cc2)C1c1ccc(OC)cc1 (stereo unspecified)
Cytochrome P450 2C19; read-out: AC50
  AC50: 39.8 µM (inconclusive)

## Cc1cccc(C(=O)N[C@H](C(=O)Nc2nc3ccc(S(C)(=O)=O)cc3s2)C(C)C)c1
[1]
  EC50: > 120 µM (not active)
[2]
  EC50: > 120 µM (not active)
[3]
  EC50: > 120 µM (not active)

## Clc1ccccc1-c1nccc(NCCN2CCOCC2)n1
Cytochrome P450 2D6
  AC50: 12.6 µM (inconclusive)

## CCCn1c(-c2cccc([N+](=O)[O-])c2)nc2c1c(=O)[nH]c(=O)n2Cc1ccccc1
[1]
  EC50: > 120 µM (not active)
[2]
  EC50: 17.5 µM (active)
[3]
  EC50: > 120 µM (not active)

## Cc1cc(C)cc(N(C(=O)C2CCCC2)C2C=CS(=O)(=O)C2)c1 (stereo unspecified)
Cytochrome P450 2C9
  AC50: 35.5 µM (inconclusive)
Cytochrome P450 2C19; read-out: AC50
  AC50: 17.8 µM (inconclusive)

## COc1ncc2nc(-c3cccs3)c(=O)n(Cc3ccc(F)cc3)c2n1
Cytochrome P450 2D6
  AC50: 0.398 µM (inconclusive)

## CN(C)CCO[C@@H](c1ccc(Cl)cc1)c1ccccn1 [ROTOXAMINE]
Cytochrome P450 2C19
  AC50: inconclusive
Cytochrome P450 2D6
  AC50: 12.6 µM (inconclusive)

## COc1ccc(-c2ccc([C@H]3[C@@H]4C=CCC[C@@]4(C)C(=O)N3Cc3ccccc3)c(F)c2)cc1
INS1
  AC50: 13.2 µM (active)

## N#Cc1cccc(NC(=O)N2CCCC3(CCN(C(=O)c4ccncc4)CC3)C2)c1
Cytochrome P450 2D6
  AC50: 25.1 µM (inconclusive)

## COc1ccc(CN2CCCC(CO)(Cc3ccc(F)cc3)C2)cc1C (stereo unspecified)
[4]
  EC50: 9.58 µM (active)
[5]
  EC50: 0.64 µM (active)

## c1ccc(CCc2cccnc2)nc1
Cytochrome P450 2D6
  AC50: 7.94 µM (inconclusive)

## COC(=O)[C@@]1(Cc2ccc(F)cc2)[C@H]2c3cc(C(=O)N(C)C)n(CCCNc4ccc(C(F)(F)F)cc4Cl)c3C[C@H]2CN1C(=O)c1ccccc1
Cytochrome P450 2C19; read-out: AC50
  AC50: 25.1 µM (inconclusive)

## COc1cccc(-n2c(CN3CCN(c4cccc(C)c4)C(C)C3)nc3ccc([N+](=O)[O-])cc3c2=O)c1 (stereo unspecified)
[4]
  EC50: > 60 µM (not active)
[5]
  EC50: 1.91 µM (active)

## O=C(N=Nc1c(O)[nH]c2ccc(Br)cc12)c1cc(-c2cccs2)nc2ccccc12
[1]
  EC50: 9.7 µM (active)
[4]
  EC50: > 60 µM (not active)
[2]
  EC50: > 120 µM (not active)
[5]
  EC50: 1.41 µM (active)
[3]
  EC50: 16.6 µM (active)

## O=c1c(Cc2ccccc2)c(O)nc2n1CCS2
Cytochrome P450 2C9
  AC50: 14.1 µM (inconclusive)
Cytochrome P450 2C19; read-out: AC50
  AC50: 14.1 µM (inconclusive)

## COc1cc(C(=O)NC(=S)NNC(=O)c2cnccn2)cc(OC)c1OC
INS1
  AC50: 1.27 µM (active)

## Cc1noc(/C=C/N(C)C)c1S(=O)(=O)N1CCCC(C(=O)NC2CCCCC2)C1 (stereo unspecified)
[4]
  EC50: 6.5 µM (active)
[5]
  EC50: 0.484 µM (active)

## O=C(N/N=C/c1ccc([N+](=O)[O-])o1)c1ccc2c(c1)OCO2
[4]
  EC50: > 30 µM (not active)
[5]
  EC50: 0.172 µM (active)

## CN1c2ccc([N+](=O)[O-])cc2N(C)C1(C)c1ccccc1 (stereo unspecified)
[4]
  EC50: > 60 µM (not active)
[5]
  EC50: 2.85 µM (active)

## Cc1ccccc1NC(=O)NCC1CCN(Cc2cccc(Cl)c2)CC1
[4]
  EC50: > 30 µM (not active)
[5]
  EC50: 1.14 µM (active)

## CN(Cc1ccco1)c1ncnc2ccc(-c3ccccc3C(F)(F)F)cc12
Cytochrome P450 2C9
  AC50: 1 µM (inconclusive)

## COc1ccc(CNC(=O)C(C)Sc2nc3ccccc3c(=O)n2CCCN2CCOCC2)cc1 (stereo unspecified)
[1]
  EC50: > 120 µM (not active)
[2]
  EC50: 23.9 µM (active)
[3]
  EC50: > 120 µM (not active)

## Cc1cc(C)n(-c2nc(NC(C)(C)C)nc(NC(C)(C)C)n2)n1
Cytochrome P450 2C9
  AC50: 8.91 µM (inconclusive)
INS1
  AC50: 3.14 µM (active)
[6]
  EC50: 0.694 µM (active)
Cytochrome P450 2C19
  AC50: inconclusive
Streptococcus
  EC50: 1.72 µM (active)

## O=C(CON1C(=O)c2ccccc2C1=O)c1ccccc1
Cytochrome P450 2C9
  AC50: 6.31 µM (inconclusive)

## COc1cc(C(=O)NCC(=O)N/N=C(C)\C=C\c2ccccc2)cc(OC)c1OC
[1]
  EC50: > 120 µM (not active)
[2]
  EC50: > 120 µM (not active)
[3]
  EC50: 24.9 µM (active)

## O=C(CCc1ccc(S(=O)(=O)NC2CCCCC2)cc1)N(Cc1ccccc1)Cc1ccccc1
Cytochrome P450 2D6
  AC50: 12.6 µM (inconclusive)

## Fc1cccc(Cl)c1-c1nnc2ccc3ccccc3n12
INS1
  AC50: 10 µM (active)

## Clc1ccccc1-c1nc(N2CCNCC2)c2ccccc2n1
Cytochrome P450 2D6
  AC50: 31.6 µM (inconclusive)

## COc1ccc2[nH]c(C)c(CCN(Cc3cccs3)C(S)=Nc3ccc(F)cc3)c2c1
[4]
  EC50: > 60 µM (not active)
[5]
  EC50: 4.21 µM (active)

## O=C(Cn1ncc2c(=O)oc3ccccc3c21)N1CCCc2ccccc21
[1]
  EC50: > 120 µM (not active)
[2]
  EC50: > 120 µM (not active)
[3]
  EC50: 6.05 µM (active)

## COc1ccc(Cc2noc(CN3CCCN(C4Cc5ccccc5C4)CC3)n2)cc1OC
[4]
  EC50: > 60 µM (not active)
[5]
  EC50: 1.3 µM (active)

## COc1ccc(OCCSc2nc[nH]n2)cc1
Cytochrome P450 2C9
  AC50: 22.4 µM (inconclusive)

## Cc1c(CCO)c(=O)n(C)n1C(=O)c1ccc(F)cc1
Cytochrome P450 2D6
  AC50: 22.4 µM (inconclusive)

## CC(=O)OC[C@@H]1O[C@H](C/C=N\O[C@@H](C)c2cn([C@H]3COC[C@H]3O)nn2)C=C[C@@H]1OC(C)=O
Cytochrome P450 2C19
  AC50: inconclusive

## COc1cccc(Nc2ncc3nc(-c4cccs4)c(=O)n(C[C@H]4CCCO4)c3n2)c1
Cytochrome P450 2D6
  AC50: 15.8 µM (inconclusive)

## CC1CCN(C(NC(=O)c2ccco2)C(=O)c2ccccc2)CC1 (stereo unspecified)
Cytochrome P450 2D6
  AC50: 15.8 µM (inconclusive)

## CC(=O)n1cc([C@H]2C=C(C(=O)N3CCN(Cc4ccccc4)CC3)O[C@@H](OCc3ccc(CO)cc3)C2)c2ccccc21
[4]
  EC50: > 30 µM (not active)
[5]
  EC50: 0.435 µM (active)

## COc1cc2c3cc1Oc1cc(ccc1O)C[C@@H]1c4c(cc(OC)c(O)c4Oc4ccc(cc4)C[C@H]3[N+](C)(C)CC2)CC[N+]1(C)C
Cytochrome P450 2C19
  AC50: inconclusive

## O=C1CC(c2ccc3c(c2)OCO3)CN1 (stereo unspecified)
Cytochrome P450 2C19; read-out: AC50
  AC50: 39.8 µM (inconclusive)

## COc1cccc2c1OC1(C)CC2NC(=O)N1Cc1ccccc1 (stereo unspecified)
[1]
  EC50: 16.1 µM (active)
[2]
  EC50: 21.6 µM (active)
[3]
  EC50: 7.38 µM (active)

## CCCN(CCC)C(=S)NC(=O)c1ccc(Cl)cc1Cl
Cytochrome P450 2D6
  AC50: 10 µM (inconclusive)

## Cc1cc(C)c2c(ccc3cccc[n+]32)c1.[O-][Cl+3]([O-])([O-])[O-]
INS1
  AC50: 4.61 µM (active)

## C/C(=N\Nc1nc(-c2ccccn2)nc2ccccc12)c1ccc(F)cc1
[1]
  EC50: 8.26 µM (active)
INS1
  AC50: 41.9 µM (active)
[2]
  EC50: 9.76 µM (active)
[3]
  EC50: 3.74 µM (active)
